Where two headings read alike, the source gives them in different places.
Legend:
Assay type in all cases: in vivo
[1] = test system: Nephotettix cincticeps (green leaf hopper - nymphs); assay: Contact test on green leaf hopper nymphs (NC), Rice plant, mortality; conditions: 72 h, 500 ppm, contact, * test duration of 3 days, read-out: NC grading of mortality
How it was run: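 Product dissolved in acetone, diluted in water with 0.01% wetting agent to 500, 250 or 100 ppm; nymphs and/or host rice plants treated. Mortality or knockdown assessed 1–3 days later, graded A (80-100%), B (50-79%), C (<50%).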

[2] = test system: Tetranychus urticae (spider mites - ova); assay: Contact test on spider mites - ova (TUe), French bean leaf, mortality; conditions: 144 h, 500 ppm, contact, 6 days, read-out: TUe grading of mortality
How it was run: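 Graded read-out: A 80-100%, B 50-79%, C below 50% mortality or knockdown, assessed usually 1-3 days post-treatment. Liquid preparations at 500, 250 or 100 ppm by weight, from acetone solution diluted in water with 0.01% wetting agent, applied to pests and/or their host plant or food medium.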

[3] = test system: Blattella germanica (cockroach nymphs); assay: Residual test on cockroach nymphs (BG/R), Plastic pot, mortality; conditions: 72 h, 3 days, read-out: BG/R grading of mortality
Protocol: The activity of the Product was determined using a variety of insect pests. The Product was used in the form of liquid preparations containing 500, 250 or 100 parts per million (ppm) by weight of the Product. The preparations were made by dissolving the Product in acetone and diluting the solutions with water containing 0.01% by weight of a wetting agent sold under the trade name "LISSAPOL" NX until the liquid preparations contained the required concentration of the Product. "Lissapol" is a Registered Trade Mark.
The test procedure adopted with regard to each pest was basically the same and comprised supporting a number of the pests on a medium which was usually a host plant or a foodstuff on which the pests feed, and treating either or both the pests and the medium with the preparations. The mortality of the pests was then assessed at periods usually varying from one to three days after the treatment.
The results of the tests are given in Table III for each of the Products, at the rate in parts per million given in the second column as a grading of mortality designated as A, B or C wherein A indicates 80-100% mortality or knockdown, B indicates 50-79% mortality or knockdown and C indicates less than 50% mortality or knockdown.
BG/R Blattella germanica

[4] = test system: Heliothis virescens (tobacco budworm - larvae); assay: Residual test on tobacco budworm larvae (HV), Cotton leaf, mortality; conditions: 48 h, read-out: HV grading of mortality
How it was run: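 Product in acetone diluted with water containing 0.01% Lissapol NX, at 500, 250 or 100 ppm; pests and/or host medium (here cotton leaf) treated. Mortality scored one to three days later, graded A (80-100%), B (50-79%), C (<50%).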

[5] = test system: Diabrotica balteata (rootworm larvae); assay: Residual test on rootworm larvae (DB), Filter paper/maize seed, mortality; conditions: 48 h, 500 ppm, residual, * test duration of 3 days, read-out: DB grading of mortality
How it was run: (§1)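 Product dissolved in acetone, diluted in water with 0.01% wetting agent to 500, 250 or 100 ppm; pests and/or host medium (plant or foodstuff) treated. Mortality or knockdown assessed 1–3 days later, graded A (80–100%), B (50–79%) or C (<50%).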

[6] = test system: Musca domestica (houseflies - adults); assay: Contact test on houseflies - adults (MD), Cotton wool/sugar, mortality; conditions: 500 ppm, contact, read-out: MD grading of mortality
How it was run: as §1

[7] = test system: Musca domestica (houseflies - adults); assay: Knockdown test on houseflies - adults (MD/KD), Cotton wool/sugar; conditions: 500 ppm, 4 hours, read-out: MD/KD grading of knockdown
How it was run: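 Adult houseflies exposed to the compound at 500, 250 or 100 ppm in acetone/water with 0.01% wetting agent, on a cotton wool/sugar medium. Knockdown and mortality assessed, graded A (80-100%), B (50-79%) or C (<50%).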

[8] = test system: Spodoptera exigua (lesser army worm - larvae); assay: Residual test on lesser army worm larvae (SP), Cotton leaf, mortality; conditions: 48 h, 500 ppm, residual, * test duration of 3 days, read-out: SP grading of mortality
How it was run: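 Product dissolved in acetone and diluted in water with 0.01% wetting agent to 500, 250 or 100 ppm; larvae and/or cotton leaf host treated. Mortality or knockdown scored one to three days later and graded A (80-100%), B (50-79%) or C (<50%).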

[9] = test system: Myzus persicae (aphids); assay: Contact test on aphids (MP), Chinese Cabbage leaf, mortality; conditions: 72 h, 500 ppm, contact, 3 days, read-out: MP grading of mortality
How it was run: as §1

[10] = test system: Tetranychus urticae (spider mites - adult); assay: Contact test on spider mites - adult (TUa), French bean leaf, mortality; conditions: 72 h, 500 ppm, contact, 3 days, read-out: TUa grading of mortality
How it was run: as §1

[11] = 24 h, ** test duration of 1 day

## C#CCc1c(F)c(F)c(COC(=O)C(c2cnc(C(C)(C)C)nc2)C(C)(C)C)c(F)c1F (racemic) [Compound 12, 2,3,5,6-tetrafluoro-4-(prop-2-yn-1-yl)benzyl (RS)-2-[2-(1,1-dimethylethyl)pyrimidin-5-yl]-3,3-dimethylbutanoate]
[1]
  mortality at 500 ppm: 80 to 100%
[2]
  mortality at 500 ppm: 80 to 100%
[3]
  mortality at 500 ppm: 80 to 100%
[4]
  mortality at 500 ppm: 80 to 100%
[5]
  mortality at 500 ppm: 80 to 100%
[6]; [11]
  mortality at 500 ppm: 80 to 100%
[7]
  pest or weed control at 500 ppm: 80 to 100%
[8]
  mortality at 500 ppm: 80 to 100%
[9]
  mortality at 500 ppm: 80 to 100%
[10]
  mortality at 500 ppm: 80 to 100%

## C[C@@H](OC(=O)[C@@H](c1cnc(C(C)(C)C)nc1)C1CC1)c1cccc(Oc2ccccc2)n1 (racemic) [Compound 90, (RS)-1-(6-phenoxypyrid-2-yl)ethyl (RS)-2-[2-(1,1-dimethylethyl)pyrimidin-5-yl]-2-cyclopropylacetate]
[1]
  mortality at 500 ppm: 80 to 100%
[2]
  mortality at 500 ppm: < 50%
[3]
  mortality at 500 ppm: 80 to 100%
[4]
  mortality at 500 ppm: 80 to 100%
[5]
  mortality at 500 ppm: 80 to 100%
[6]; [11]
  mortality at 500 ppm: 80 to 100%
[7]
  pest or weed control at 500 ppm: 80 to 100%
[8]
  mortality at 500 ppm: 80 to 100%
[9]
  mortality at 500 ppm: 80 to 100%
[10]
  mortality at 500 ppm: 80 to 100%

## C=CCc1c(F)c(F)c(COC(=O)C(c2cnc(C(F)(F)F)nc2)C(C)C)c(F)c1F (racemic) [Compound 114, 2,3,5,6-tetrafluoro-4-(prop-2-en-1-yl)benzyl (RS)-2-(2-trifluoromethylpyrimidin-5-yl)-3-methylbutanoate]
[1]
  mortality at 500 ppm: 80 to 100%
[2]
  mortality at 500 ppm: 80 to 100%
[3]
  mortality at 500 ppm: 80 to 100%
[4]
  mortality at 500 ppm: 80 to 100%
[5]
  mortality at 500 ppm: 80 to 100%
[6]; 72 h, 3 days
  mortality at 500 ppm: 80 to 100%
[7]
  pest or weed control at 500 ppm: 80 to 100%
[8]
  mortality at 500 ppm: 80 to 100%
[9]
  mortality at 500 ppm: 80 to 100%
[10]
  mortality at 500 ppm: 80 to 100%

## C=CCc1c(F)c(F)c(COC(=O)C(c2cnc(C)nc2)C(C)C)c(F)c1F (racemic) [Compound 119]
[1]
  mortality at 500 ppm: 80 to 100%
[2]
  mortality at 500 ppm: < 50%
[3]
  mortality at 500 ppm: 80 to 100%
[4]
  mortality at 500 ppm: < 50%
[5]
  mortality at 500 ppm: 80 to 100%
[6]; [11]
  mortality at 500 ppm: 80 to 100%
[7]
  pest or weed control at 500 ppm: 80 to 100%
[8]
  mortality at 500 ppm: 80 to 100%
[9]
  mortality at 500 ppm: 80 to 100%
[10]
  mortality at 500 ppm: 80 to 100%

## COCc1c(F)c(F)c(COC(=O)C(c2cnc(C)nc2)C(C)C)c(F)c1F (racemic) [Compound 214, 4-(methoxymethyl)-2,3,5,6-tetrafluoroenzyl (RS)-2-(2-methylpyrimidin-5-yl)-3-methylbutanoate]
[1]
  mortality at 500 ppm: 80 to 100%
[2]
  mortality at 500 ppm: < 50%
[3]
  mortality at 500 ppm: 80 to 100%
[4]
  mortality at 500 ppm: < 50%
[5]
  mortality at 500 ppm: < 50%
[6]; [11]
  mortality at 500 ppm: 50 to 79%
[7]
  pest or weed control at 500 ppm: 80 to 100%
[8]
  mortality at 500 ppm: 80 to 100%
[9]
  mortality at 500 ppm: 80 to 100%
[10]
  mortality at 500 ppm: 80 to 100%

Source: US4962109A, “Insecticidally and acaricidally active pyrimidine esters and intermediates therefor” (Imperial Chemical Industries PLC, priority 1985, dated 1990)
